From patent US8871465B2 (priority 2009, dated 2014)

Tests used:
[1] = as indicated in U.S. Pat. No. 6,558,917; cited from earlier work
[2] = Stability of the substrate in aqueous medium; assay type: physicochemical; settings: medium at pH 7.2; a pH of 6.8 is required
[3] = test system: Bacillus lentus ATCC 10840; settings: pH 7.2
[4] = test system: Bacillus circulans ATCC 4513; settings: pH 7.2
L. ivanovii 0002147 = settings: 37° C., pH 7.2, 1 000 CFU, detection threshold 30 000 RFU
Experimental: (§1) Various pure strains of the Bacillus genus and also other Gram-positive bacteria were tested in a microplate in the presence of the medium below. A reading of the appearance of the fluorescence in each of the various wells of the microplate was then performed at different times over the course of 44 h of incubation at 37° C.
(§2) The medium having the following composition was used (composition in g/l), pH 7.2:
(§3) The wells of the microplate are inoculated with 10 colony-forming units (CFU) of bacteria of the Bacillus cereus group and 1 000 CFU for the other Bacillus that are non cereus and other Gram-positive bacteria. The microplate is then incubated for 44 h at 37° C. in a microplate reader in order to evaluate the PC-PLC activity of these various strains in the form of kinetics of hydrolysis of the substrate 4 MU-CP, i.e to detect and measure the appearance of fluorescence. The detection threshold of the measuring apparatus is fixed at 30 000 RFU (relative fluorescence unit).

L. ivanovii ATCC 49954 = settings: 37° C., pH 7.2, 1 000 CFU, detection threshold 30 000 RFU
Experimental: as §1, §2, §3

[5] = test system: L. monocytogenes ATCC 19118; settings: 37° C., pH 7.2, 1 000 CFU, detection threshold 30 000 RFU
Experimental: as §1, §2, §3

S. aureus 25923 = settings: 37° C., pH 7.2, 1 000 CFU, detection threshold 30 000 RFU
Experimental: as §1, §2, §3

S. aureus 8407603 = settings: 37° C., pH 7.2, 1 000 CFU, detection threshold 30 000 RFU
Experimental: as §1, §2, §3

L. monocytogenes 0301902 = settings: 37° C., pH 7.2, 1 000 CFU, detection threshold 30 000 RFU
Experimental: as §1, §2, §3

[6] = test system: Bacillus subtilis ATCC 6051; settings: 37° C., pH 7.2, 1 000 CFU, detection threshold 30 000 RFU
Experimental: as §1, §2, §3

[7] = test system: Bacillus pumilus ATCC 7061; settings: pH 7.2
[8] = test system: ATCC 10876 (Bacillus cereus group); settings: pH 7.2
[9] = test system: Bacillus cereus ATCC 7064
[10] = test system: 0240015 (Bacillus cereus group); settings: pH 7.2
[11] = test system: ATCC 6464 (Bacillus cereus group); settings: pH 7.2
[12] = test system: ATCC 6463 (Bacillus cereus group); settings: pH 7.2
[13] = test system: Bacillus licheniformis 93.08.043; settings: pH 7.2
[14] = test system: PaeniBacillus polymyxa ATCC 21551; settings: pH 7.2
[15] = test system: NCTC 11145 (Bacillus cereus group); settings: pH 7.2
Bacillus cereus = settings: pH 7.2
[16] = test system: Bacillus cereus ATCC 7064; settings: pH 7.2
[17] = test system: ATCC 9139 (Bacillus cereus group); settings: pH 7.2
[18] = test system: ATCC 33019 (Bacillus cereus group); settings: pH 7.2
[19] = test system: other Gram-positive bacteria; settings: pH 7.2
[20] = test system: Bacillus sphaericus 8710054; settings: pH 7.2
[21] = test system: Bacillus megaterium ATCC 14581; settings: pH 7.2

Question: What does the source list for `Cc1cc(=O)oc2cc(OP(=O)(O)OC3C(O)C(O)C(O)C(O)C3O)ccc12` (stereo not shown) [4 MU-MIP, 4-methylumbelliferyl myoinositol-1-phosphate]?
Answer: Stability in an aqueous medium [1]: reduced stability; Stability of the substrate at pH 7.2 [2]: instability of the substrate being too great

Question: What does the source list for `Cc1cc(=O)oc2cc(OP(=O)([O-])OCC[N+](C)(C)C)ccc12` [4 MU-PC, 4-methylumbelliferyl choline phosphate]?
Answer: Levels of fluorescence in 24 h [3]: 5000 RFU; Levels of fluorescence in 40 h [3]: 10000 RFU; Levels of fluorescence in 24 h [4]: 10000 RFU; Levels of fluorescence in 40 h [4]: 20000 RFU; Levels of fluorescence in 24 h (L. ivanovii 0002147; 24 h): 2000 RFU; Levels of fluorescence in 40 h (L. ivanovii 0002147; 40 h): 10000 RFU; Levels of fluorescence in 24 h (L. ivanovii ATCC 49954; 24 h): 2000 RFU; Levels of fluorescence in 40 h (L. ivanovii ATCC 49954; 40 h): 10000 RFU; Levels of fluorescence in 24 h ([5]; 24 h): 4000 RFU; Levels of fluorescence in 40 h ([5]; 40 h): 15000 RFU; Levels of fluorescence in 24 h (S. aureus 25923; 24 h): 2000 RFU; Levels of fluorescence in 40 h (S. aureus 25923; 40 h): 2000 RFU; Levels of fluorescence in 24 h (S. aureus 8407603; 24 h): 2000 RFU; Levels of fluorescence in 40 h (S. aureus 8407603; 40 h): 2000 RFU; Levels of fluorescence in 24 h (L. monocytogenes 0301902; 24 h): 5000 RFU; Levels of fluorescence in 40 h (L. monocytogenes 0301902; 40 h): 10000 RFU; Levels of fluorescence in 24 h ([6]; 24 h): 10000 RFU; Levels of fluorescence in 40 h ([6]; 40 h): 20000 RFU; Levels of fluorescence in 24 h [7]: 5000 RFU; Levels of fluorescence in 40 h [7]: 10000 RFU; Levels of fluorescence in 24 h [8]: >60000 RFU; Levels of fluorescence in 40 h [8]: >60000 RFU; Reduction of the detection time at pH 7.2 compared with pH 6.8 [9]: 10 h; Levels of fluorescence in 24 h [10]: >60000 RFU; Levels of fluorescence in 40 h [10]: >60000 RFU; Levels of fluorescence in 24 h [11]: >60000 RFU; Levels of fluorescence in 40 h [11]: >60000 RFU; Levels of fluorescence in 24 h [12]: >60000 RFU; Levels of fluorescence in 40 h [12]: >60000 RFU; Levels of fluorescence in 24 h [13]: 2000 RFU; Levels of fluorescence in 40 h [13]: 2000 RFU; Levels of fluorescence in 24 h [14]: 5000 RFU; Levels of fluorescence in 40 h [14]: 10000 RFU; Levels of fluorescence in 24 h [15]: >60000 RFU; Levels of fluorescence in 40 h [15]: >60000 RFU; Incubation time to positive signal (PC-PLC activity) (Bacillus cereus): ≥ 15 h; Levels of fluorescence in 24 h [16]: >60000 RFU; Levels of fluorescence in 40 h [16]: >60000 RFU; Levels of fluorescence in 24 h [17]: >60000 RFU; Levels of fluorescence in 40 h [17]: >60000 RFU; Levels of fluorescence in 24 h [18]: >60000 RFU; Levels of fluorescence in 40 h [18]: >60000 RFU; Incubation time to positive signal (PC-PLC activity) [19]: > 40 h; Levels of fluorescence in 24 h [20]: 20000 RFU; Levels of fluorescence in 40 h [20]: >60000 RFU; Levels of fluorescence in 24 h [21]: 5000 RFU; Levels of fluorescence in 40 h [21]: 5000 RFU
